In ChEMBL document CHEMBL4819018, “Variously substituted 2-oxopyridine derivatives: Extending the structure-activity relationships for allosteric modulation of the cannabinoid CB2 receptor” (Eur J Med Chem, 2021):
Blank lines part the entries; values can stand above or below the molecule they belong to. The source made the active and inactive calls. The calls are words filed in the database; no cut-off is given here.

How the values were obtained:
Cannabinoid receptor 2 [1] = molecular target: T1, Cannabinoid receptor 2 (Homo sapiens, UniProt P34972); experiment: Positive allosteric modulator activity at human CB2R expressed in CHO-K1 cells assessed as potentiation of CP55940-stimulated beta-arrestin2 recruitment measured after 90 mins by PathHunter assay; assay type: cell-based
T1 sequence (P34972 whole entry): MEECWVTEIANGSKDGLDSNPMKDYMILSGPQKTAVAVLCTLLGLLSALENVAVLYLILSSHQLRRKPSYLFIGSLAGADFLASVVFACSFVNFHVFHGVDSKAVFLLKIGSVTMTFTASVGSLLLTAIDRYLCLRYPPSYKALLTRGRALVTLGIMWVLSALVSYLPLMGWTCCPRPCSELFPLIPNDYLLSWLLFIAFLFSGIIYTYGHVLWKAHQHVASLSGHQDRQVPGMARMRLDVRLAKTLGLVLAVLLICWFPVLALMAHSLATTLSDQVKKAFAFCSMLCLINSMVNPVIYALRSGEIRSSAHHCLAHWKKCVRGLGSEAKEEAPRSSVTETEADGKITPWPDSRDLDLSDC

Cannabinoid receptor 2 [2] = molecular target: T1, Cannabinoid receptor 2; experiment: Positive allosteric modulator activity at human CB2R expressed in CHO-K1 cell membrane assessed as increase in [3H]CP55940 binding at 0.001 to 1 microM measured after 60 mins by liquid scintillation spectrometry; assay type: cell membranes; details: dose 0.001-1 µM
Cannabinoid receptor 1 = Cannabinoid receptor 1 (Homo sapiens, UniProt P21554); experiment: Modulation of human CB1R expressed in CHO-K1 cell membrane assessed as effect on [3H]CP55940 binding at 0.001 to 10 uM measured after 60 mins by liquid scintillation spectrometry; assay type: cell membranes; details: cho-k1, 1 h, dose 0.001-10 µM
Cannabinoid receptor 1, sequence (P21554 whole entry): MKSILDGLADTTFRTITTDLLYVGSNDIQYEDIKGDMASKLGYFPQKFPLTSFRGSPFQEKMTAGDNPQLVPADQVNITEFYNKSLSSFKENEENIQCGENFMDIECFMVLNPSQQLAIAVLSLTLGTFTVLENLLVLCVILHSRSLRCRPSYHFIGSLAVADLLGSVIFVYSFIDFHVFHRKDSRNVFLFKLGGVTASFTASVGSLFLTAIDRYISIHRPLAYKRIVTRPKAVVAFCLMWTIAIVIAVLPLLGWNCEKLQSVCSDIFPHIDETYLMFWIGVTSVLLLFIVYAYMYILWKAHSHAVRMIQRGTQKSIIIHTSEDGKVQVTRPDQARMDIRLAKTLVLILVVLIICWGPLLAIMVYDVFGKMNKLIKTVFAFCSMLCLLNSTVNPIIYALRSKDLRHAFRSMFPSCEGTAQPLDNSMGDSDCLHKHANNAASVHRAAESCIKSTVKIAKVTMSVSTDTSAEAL

Cannabinoid receptor 2 [3] = molecular target: T1, Cannabinoid receptor 2; experiment: Positive allosteric modulator activity at human CB2R expressed in CHO-K1 cell membrane assessed as CP55940 Emax for [35S]GTPgammaS binding at 1 nM measured after 90 mins by liquid scintillation counting analysis (reference value: 57 +/-1.5%); assay type: functional, cell membranes; details: filed as positive allosteric modulator
Cannabinoid receptor 2 [4] = molecular target: T1, Cannabinoid receptor 2; experiment: Positive allosteric modulator activity at human CB2R expressed in CHO-K1 cells assessed as potentiation of CP55940-stimulated beta-arrestin2 recruitment measured after 90 mins by PathHunter assay relative to control; assay type: cell-based; details: filed as positive allosteric modulator
Cannabinoid receptor 2 [5] = molecular target: T1, Cannabinoid receptor 2; experiment: Positive allosteric modulator activity at human CB2R expressed in CHO-K1 cells assessed as potentiation of CP55940-stimulated inhibition of forskolin-induced cAMP accumulation measured after 90 mins by HitHunter cAMP assay; assay type: functional, cell-based
Cannabinoid receptor 2 [6] = molecular target: T1, Cannabinoid receptor 2; experiment: Positive allosteric modulator activity at human CB2R expressed in CHO-K1 cell membrane assessed as increase in [3H]CP55940 binding at 10 uM measured after 60 mins by liquid scintillation spectrometry; assay type: cell membranes
Cannabinoid receptor 2 [7] = molecular target: T1, Cannabinoid receptor 2; experiment: Inverse agonist activity at human CB2R expressed in CHO-K1 cell membrane assessed as decrease in [35S]GTPgammaS binding at 1 to 10 uM measured after 90 mins by liquid scintillation counting analysis; assay type: cell membranes; details: cho-k1, 1.5 h, dose 1-10 µM
Cannabinoid receptor 2 [8] = molecular target: T1, Cannabinoid receptor 2; experiment: Positive allosteric modulator activity at human CB2R expressed in CHO-K1 cell membrane assessed as CP55940 Emax for [35S]GTPgammaS binding at 100 nM measured after 90 mins by liquid scintillation counting analysis (reference value: 57 +/-1.5%); assay type: functional, cell membranes; details: filed as positive allosteric modulator
Cannabinoid receptor 2 [9] = molecular target: T1, Cannabinoid receptor 2; experiment: Positive allosteric modulator activity at human CB2R expressed in CHO-K1 cell membrane assessed as increase in [3H]CP55940 binding at 100 nM measured after 60 mins by liquid scintillation spectrometry; assay type: cell membranes
Cannabinoid receptor 2 [10] = molecular target: T1, Cannabinoid receptor 2; experiment: Positive allosteric modulator activity at human CB2R expressed in CHO-K1 cells assessed as potentiation of CP55940-stimulated inhibition of forskolin-induced cAMP accumulation measured after 90 mins by HitHunter cAMP assay relative to control; assay type: functional, cell-based; details: filed as positive allosteric modulator
Cannabinoid receptor 2 [11] = molecular target: T1, Cannabinoid receptor 2; experiment: Stimulation of [35S]GTPgammaS binding at human CB2R expressed in CHO-K1 cell membrane at 0.001 to 10 uM measured after 90 mins by liquid scintillation counting analysis; assay type: cell membranes; details: cho-k1, 1.5 h, dose 0.001-10 µM
Cannabinoid receptor 2 [12] = molecular target: T1, Cannabinoid receptor 2; experiment: Inhibition of [35S]GTPgammaS binding at human CB2R expressed in CHO-K1 cell membrane at 0.001 to 10 uM measured after 90 mins by liquid scintillation counting analysis; assay type: cell membranes; details: cho-k1, 1.5 h, dose 0.001-10 µM
[13] = filed as positive allosteric modulator

EC50 (Cannabinoid receptor 2 [1]): > 10 µM | Activity (Cannabinoid receptor 2 [2]): 20% | Activity (Cannabinoid receptor 1): Not Active | Emax (Cannabinoid receptor 2 [3]): 51% | Emax (Cannabinoid receptor 2 [4]): 51% | EC50 (Cannabinoid receptor 2 [5]): > 10 µM | Activity (Cannabinoid receptor 2 [6]): inactive | Activity (Cannabinoid receptor 2 [7]): Active | Emax (Cannabinoid receptor 2 [8]): 72% | Activity (Cannabinoid receptor 2 [9]; [13]): Active | Emax (Cannabinoid receptor 2 [10]): 120%
Compound: Cc1c(Br)cn(Cc2ccccc2F)c(=O)c1NC(=O)C1CCCCCC1

EC50 (Cannabinoid receptor 2 [1]): 0.15 µM | Activity (Cannabinoid receptor 2 [2]; [13]): 40% | Activity (Cannabinoid receptor 1): Not Active | Activity (Cannabinoid receptor 2 [11]): Not Active | Emax (Cannabinoid receptor 2 [3]): 73% | Emax (Cannabinoid receptor 2 [4]): 75% | inhibition (INH) (Cannabinoid receptor 2 [12]): Not Active | EC50 (Cannabinoid receptor 2 [5]): 0.015 µM | Activity (Cannabinoid receptor 2 [6]): inactive | Emax (Cannabinoid receptor 2 [8]): 67% | Activity (Cannabinoid receptor 2 [9]; [13]): Active | Emax (Cannabinoid receptor 2 [10]): 101%
Compound: Cc1c(Br)cn(Cc2ccccc2Cl)c(=O)c1NC(=O)C1CCCCCC1

Activity (Cannabinoid receptor 2 [9]): inactive
Compound: Cc1c(Br)cn(Cc2cccc(F)c2)c(=O)c1NC(=O)C1CCCCCC1

Activity (Cannabinoid receptor 2 [9]): inactive
Compound: Cc1c(Br)cn(Cc2ccccc2)c(=O)c1NC(=O)C1CCCCCC1

Activity (Cannabinoid receptor 2 [9]): inactive
Compound: Cc1c(Br)cn(Cc2ccc(I)cc2)c(=O)c1NC(=O)C1CCCCCC1

Activity (Cannabinoid receptor 2 [9]): inactive
Compound: Cc1c(Br)cn(Cc2ccc(Cl)cc2)c(=O)c1NC(=O)C1CCCCCC1

The next lines start with the molecule.

Compound: Cc1c(Br)cn(Cc2ccc(F)cc2)c(=O)c1NC(=O)c1ccccc1
Activity (Cannabinoid receptor 2 [9]): inactive

Compound: Cc1c(Br)cn(Cc2ccc(F)cc2)c(=O)c1N
Activity (Cannabinoid receptor 2 [9]): inactive

Compound: Cc1c(Br)cn(CCCCCO)c(=O)c1NC(=O)C1CCCCCC1
Activity (Cannabinoid receptor 2 [9]): inactive

Compound: Cc1c(Br)cn(Cc2ccc(Br)cc2)c(=O)c1NC(=O)C1CCCCCC1
Activity (Cannabinoid receptor 2 [6]): inactive | Activity (Cannabinoid receptor 2 [9]; [13]): Active

Compound: CCCCCn1cc(Br)c(C)c(NC(=O)C2CCCCCC2)c1=O
Activity (Cannabinoid receptor 2 [9]): inactive

Compound: Cc1c(Br)cn(CCN2CCOCC2)c(=O)c1NC(=O)C1CCCCCC1
Activity (Cannabinoid receptor 2 [9]): inactive

Compound: Cc1c(Br)cn(Cc2ccc(F)cc2)c(=O)c1NC(=O)C1CCCCCC1
EC50 (Cannabinoid receptor 2 [1]): 0.017 µM | Emax (Cannabinoid receptor 2 [4]): 79% | EC50 (Cannabinoid receptor 2 [5]): 0.0038 µM | Emax (Cannabinoid receptor 2 [10]): 91%

Compound: Cc1c(Br)cn(Cc2ccc(F)cc2)c(=O)c1[N+](=O)[O-]
Activity (Cannabinoid receptor 2 [9]): inactive

Compound: CC(=O)Nc1c(C)c(Br)cn(Cc2ccc(F)cc2)c1=O
Activity (Cannabinoid receptor 2 [9]): inactive

Compound: Cc1c(Br)cn(Cc2ccc(F)cc2)c(=O)c1NC(=O)NC1CCCCCC1
Activity (Cannabinoid receptor 2 [9]): inactive

Compound: Cc1c(Br)cn(Cc2ccc(F)cc2)c(=O)c1NC(=O)C1CCC(C)CC1 (centres undefined)
Activity (Cannabinoid receptor 2 [9]): inactive

Compound: CCCCCC(=O)Nc1c(C)c(Br)cn(Cc2ccc(F)cc2)c1=O
Activity (Cannabinoid receptor 2 [9]): inactive

Compound: Cc1c(Br)cn(Cc2ccc(F)cc2)c(=O)c1NC(=O)OC1CCCCCC1
Activity (Cannabinoid receptor 2 [9]): inactive
